The results in this text go back to patent US10844049B2, “GLP-1R agonists and uses thereof” (QILU REGOR THERAPEUTICS INC., priority 2018, dated 2020).

As usually defined, the EC50 is the concentration at which the effect is half-maximal.

In this experiment the target is GLP1R (Homo sapiens, UniProt P43220). Description: GLP1R cAMP HTRF assay, HEK293/GLP-1R/CRE/Luc (HEK293T cells). In kind it is cell-based. Particulars: read-out: EC50. On the procedure: GLP-1R-mediated agonist activity was determined with a cell-based functional assay utilizing an HTRF (Homogeneous Time-Resolved Fluorescence) cAMP detection kit (cAMP Dynamic 2 Assay Kit; CisBio cat #62AM4PEC) that measures cAMP levels in the cell. The method is a competitive immunoassay between native cAMP produced by the cells and exogenous cAMP labeled with the dye d2. The tracer binding is visualized by a mAb anti-cAMP labeled with Cryptate. The specific signal (i.e., energy transfer) is inversely proportional to the concentration of cAMP in either standard or experimental sample.
Chain of GLP1R (P43220 24-463): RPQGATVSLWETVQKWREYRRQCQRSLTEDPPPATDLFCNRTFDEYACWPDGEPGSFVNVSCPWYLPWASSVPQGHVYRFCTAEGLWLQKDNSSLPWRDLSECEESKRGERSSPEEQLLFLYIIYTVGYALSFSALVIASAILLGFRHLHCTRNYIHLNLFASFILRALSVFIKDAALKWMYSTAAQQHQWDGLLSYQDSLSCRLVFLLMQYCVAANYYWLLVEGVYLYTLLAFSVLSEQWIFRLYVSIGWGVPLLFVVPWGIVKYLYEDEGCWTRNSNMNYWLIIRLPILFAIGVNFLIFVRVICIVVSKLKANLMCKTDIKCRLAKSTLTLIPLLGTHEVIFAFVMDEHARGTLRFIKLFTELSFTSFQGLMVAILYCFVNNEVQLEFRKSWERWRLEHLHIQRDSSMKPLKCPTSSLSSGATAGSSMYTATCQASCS
A cell line stably expressing the receptor was isolated.
Varying concentrations of each compound to be tested (in DMSO) were diluted in DMSO to obtain 200× compound working solution first and then 50 nl compounds were added to a white 384-well assay plate (Greiner 784075) with ECHO. The final DMSO concentration was 0.5%. The compound concentration range may be adjusted at any time.
Cells were removed from cryopreservation, re-suspended in 5 mL of Dulbecco's Phosphate Buffered Saline (DPBS-Sigma Cat # D8537) and centrifuged at 900 g for 5 min at 22° C. The cell pellet was then re-suspended in 1 mL of assay buffer [DPBS with 500 μM IBMX (Sigma #15879) and 0.1% BSA (Sigma # A1933). IBMX and BSA were freshly added on the day of assay]. A 10 μL sample of the cell suspension was counted on an Invitrogen Countess II to determine cell viability and cell count per mL. The remaining cell suspension was then adjusted with assay buffer to deliver 1000 viable cells per well using a Matrix Combi Multidrop reagent dispenser. 10 μL cell suspensions were added to each well of the assay plate which already contains compound. The plate was sealed and incubated at 37° C. with 5% CO2 for 30 minutes.
Following the 30 minute incubation, 5 μL of labeled d2 cAMP and 5 μL of anti-cAMP antibody (both diluted 1:20 in cell lysis buffer; as described in the manufacturer's assay protocol) were added to each well of the assay plate. The plates w ere then incubated at room temperature and after 60 minutes, changes in the HTRF signal were read with an Envision multi-label plate reader using excitation of 330 nm and emissions of 615 and 665 nm. Raw data were converted to nM cAMP by interpolation from a cAMP standard curve (as described in the manufacturer's assay protocol) and the percent effect was determined relative to a saturating concentration of the full agonist GLP-17-37 (10 nM) included on each plate. EC50 determinations were made from agonist dose-response curves analyzed with a curve fitting program using a 4-parameter logistic dose response equation.
3) Anti-cAMP antibody-cryptate working solution preparation • c) The lyophilisate was reconstituted with appropriate amount of distilled water according to manufacturer's instruction to make working stock which can be aliquoted and frozen (−20° C.). • d) The working stock solution was diluted 1:20 in the conjugate and lysis buffer before use. Procedures Procedures for Cell Suspension Preparation • 1. Frozen cells were thawed very briefly in a 37° C. water bath under sterile conditions until just before ice completely melt (for about 1 minute) with a continuous agitation. Caution was taken because a longer incubation could result in cell death. • 2. DMSO was removed from the media by carefully transferring thawed cells to a sterile 15/50 mL tube, filling a tube with 10-50 mL of complete media pre-warmed to 37° C., and allowing the cells to sit 5 min before centrifuging at 900 rpm for 5 minutes for cell collection. • 3. The cells were resuspended with assay buffer. • 4. For stable GLP1-R assay, the optimized cell density is 1000 cells/well. Caution was taken because cell density optimization was crucial and needed to be optimized in different laboratories. The level of cAMP produced by the cells must fall within the linear range of the standard curve.
(In general: Time-resolved FRET reads energy transfer from a long-lived donor to a nearby acceptor.)
On to `CN(Cc1ccc(Cl)cc1F)c1cccc(N2CCN(Cc3nc4ccc(C(=O)O)cc4n3C[C@@H]3CCO3)CC2)n1` [Compound 2, (S)-2-((4-(6-((4-chloro-2-fluorobenzyl)(methyl)amino)pyridin-2-yl)piperazin-1-yl)methyl)-1-(oxetan-2-ylmethyl)-1 h-benzo[d]imidazole-6-carboxylic acid], for which the EC50 is above 1000 nM. As for `O=C(O)c1ccc2nc(CN3CCN(c4ccc5c(n4)N(Cc4ccc(Cl)cc4F)CCC5)CC3)n(C[C@@H]3CCO3)c2c1` [Compound 3, (S)-2-((4-(8-(4-chloro-2-fluorobenzyl)-5,6,7,8-tetrahydro-1,8-naphthyridin-2yl)piperazin-1-yl)methyl)-1-(oxetan-2-ylmethyl)-1 h-benzo[d]imidazole-6-carboxylic acid], the figure is above 1000 nM; as for `O=C(O)c1ccc2nc(CN3CCN(c4ccc5c(n4)N(Cc4ccc(Cl)cc4F)CCO5)CC3)n(C[C@@H]3CCO3)c2c1` [Compound 4, (S)-2-((4-(4-(4-chloro-2-fluorobenzyl)-3H-dihydro-2H-pyrido[3,2-b][1H]oxazin-6-yl)piperazin-1-yl)methyl)-1-(oxetan-2-ylmethyl)-1H-benzo[d]imidazole-6-carboxylic acid], above 1000 nM; as for `Cn1ccnc1Cn1c(CN2CCN(c3ccc4c(n3)N(Cc3ccc(Cl)cc3F)CCO4)CC2)nc2ccc(C(=O)O)cc21` [Compound 5, 2-((4-(4-(4-chloro-2-fluorobenzyl)-3,4-dihydro-2 h-pyrido[3,2-b][1,4]oxazin-6-yl)piperazin-1-yl)methyl)-1-((l-methyl-1 h-imidazol-2-yl)methyl)-1 h-benzo[d] imidazole-6-carboxylic acid], above 1000 nM.

Consider `O=C(O)c1ccc2nc(CN3CCN(c4ccc(=O)n(CCc5ccc(Cl)cc5F)n4)CC3)n(C[C@@H]3CCO3)c2c1` [Compound 6, (S)-2-((4-(1-(4-chloro-2-fluorophenethyl)-6-oxo-1,6-dihydropyridazin-3-yl)piperazin-1-yl)methyl)-1-(oxetan-2-ylmethyl)-1 h-benzo[d]imidazole-6-carboxylic add], for which the EC50 is above 1000 nM. As for `O=C(O)c1ccc2nc(CN3CCN(c4ccc(=O)n(Cc5ccc(Cl)cc5F)n4)CC3)n(C[C@@H]3CCO3)c2c1` [Compound 7, (S)-2-((4-(1-(4-chloro-2-fluorobenzyl)-6-oxo-1,6-dihydropyridazin-3-yl)piperazin-1-yl)methyl)-1-(oxetan-2-ylmethyl)-1 h-benzo[d]imidazole-6-carboxylic acid], the half-maximal effective concentration (EC50) was above 1000 nM. On to `O=C(O)c1ccc2nc(CN3CCN(c4cccn(CCc5ccc(Cl)cc5F)c4=O)CC3)n(C[C@@H]3CCO3)c2c1` [Compound 8, (S)-2-((4-(1-(4-chloro-2-fluorophenethyl)-2-oxo-1,2-dihydropyridin-3-yl)piperazin-1-yl)methyl)-1-(oxetan-2-ylmethyl)-1h-benzo[d]imidazole-6-carboxylic acid], for which the EC50 was above 1000 nM. Turning to `O=C(O)c1ccc2nc(CN3CCN(c4ccc5ccn(Cc6ccc(Cl)cc6F)c5n4)CC3)n(C[C@@H]3CCO3)c2c1` [Compound 13, (S)-2-((4-(1-(4-chloro-2-fluorobenzyl)-1 h-pyrrolo[2,3-b]pyridin-6-yl)piperazin-1-yl)methyl)-1-(oxetan-2-ylmethyl)-1 h-benzo[d]imidazole-6-carboxylic add], the concentration for a half-maximal effect (EC50) is at most 150 nM. As for `O=C(O)c1ccc2nc(CN3CCN(c4ccc5ccn(Cc6ccc(Cl)cc6F)c5c4)CC3)n(C[C@@H]3CCO3)c2c1` [Compound 14, (S)-2-((4-(1-(4-chloro-2-fluorobenzyl)-th-indol-6-yl)piperazin-1-yl)methyl)-1-(oxetan-2-ylmethyl)-1 h-benzo[d]imidazole-6-carboxylic acid], the figure is above 1000 nM. As for `O=C(O)c1ccc2nc(CN3CCCN(c4cccc(OCc5ccc(Cl)cc5F)n4)CC3)n(C[C@@H]3CCO3)c2c1` [Compound 15, (S)-2-((4-(6-(4-chloro-2-fluorobenzyloxy)pyridin-2-yl)-1,4-diazepan-1-yl)methyl)-1-(oxetan-2-ylmethyl)-1 h-benzo[d]imidazole-6-carboxylic acid], the figure is at most 150 nM. As for `O=C(O)c1ccc2nc(CN3CC4CC3CN4c3cccc(OCc4ccc(Cl)cc4F)n3)n(C[C@@H]3CCO3)c2c1` (stereo partly drawn) [Compound 16, 2-((5-(6-((4-chloro-2-fluorobenzyl)oxy)pyridin-2-yl)-2,5-diazabicyclo[2.2.1]heptan-2-yl)methyl)-1-(((S)-oxetan-2-yl)methyl)-1 h-benzo[d]imidazole-6-carboxylic acid], the figure is at most 150 nM. On to `O=C(O)c1ccc2nc(CN3CC4CCC3CN4c3cccc(OCc4ccc(Cl)cc4F)n3)n(C[C@@H]3CCO3)c2c1` (stereo partly drawn) [Compound 17, 2-((5-(6-((4-chloro-2-fluorobenzyl)oxy)pyridin-2-yl)-2,5-diazabicyclo[2.2.2]octan-2-yl)methyl)-1-(((S)-oxetan-2-yl)methyl)-1 h-benzo[d]imidazole-6-carboxylic acid], for which the 50% effective concentration (EC50) is above 1000 nM. Next, `O=C(O)c1ccc2nc(CN3CC=C(c4ccc(=O)n(CCc5ccc(Cl)cc5F)n4)CC3)n(C[C@@H]3CCO3)c2c1` [Compound 20, (S)-2-((4-(1-(4-chloro-2-fluorophenethyl)-6-oxo-1,6-dihydropyridazin-3-yl)-5,6-dihydropyridin-1(2H)-yl)methyl)-1-(oxetan-2-ylmethyl)-1 h-benzo[d]imidazole-6-carboxylic acid]: at most 1000 nM; `O=C(O)c1ccc2nc(CN3CCC(c4ccc5ccn(Cc6ccc(Cl)cc6F)c5n4)CC3)n(C[C@@H]3CCO3)c2c1` [Compound 24, (S)-2-((4-(1-(4-chloro-2-fluorobenzyl)-1H-pyrrolo[2,3-b]pyridin-6-yl)piperidin-1-yl)methyl)-1-(oxetan-2-ylmethyl)-1H-benzo[d]imidazole-6-carboxylic add]: at most 150 nM; `O=C(O)c1ccc2nc(CN3CC=C(c4ccc5ccn(Cc6ccc(Cl)cc6F)c5n4)CC3)n(C[C@@H]3CCO3)c2c1` [Compound 25, (S)-2-((4-(1-(4-chloro-2-fluorobenzyl)-1 h-pyrrolo[2,3-b]pyridin-6-yl)-5,6-dihydropyridin-1(2H)-yl)methyl)-1-(oxetan-2-ylmethyl)-1 h-benzo[d]imidazole-6-carboxylic acid]: at most 150 nM. As for `O=C(O)c1ccc2nc(CN3CCC(c4ccc5ccn(Cc6ccc(Cl)cc6F)c5c4)CC3)n(C[C@@H]3CCO3)c2c1` [Compound 26, (S)-2-((4-(1-(4-chloro-2-fluorobenzyl)-1 h-indol-6-yl)piperidin-1-yl)methyl)-1-(oxetan-2-ylmethyl)-1 h-benzo[d]imidazole-6-carboxylic acid], the figure is above 1000 nM. Next, `O=C(O)c1ccc2nc(CN3CC=C(c4ccc5ccn(Cc6ccc(Cl)cc6F)c5c4)CC3)n(C[C@@H]3CCO3)c2c1` [Compound 27, (S)-2-((4-(1-(4-chloro-2-fluorobenzyl)-1 h-indol-6-yl)-5,6-dihydropyridin-1(2H)-yl)methyl)-1-(oxetan-2-ylmethyl)-1 h-benzo[d]imidazole-6-carboxylic add]: above 1000 nM.

Consider `O=C(O)c1ccc2nc(CN3CC=C(c4cc(OCc5ccc(Cl)cc5F)ccn4)CC3)n(C[C@@H]3CCO3)c2c1` [Compound 30, (S)-2-((4-((4-chloro-2-fluorobenzyl)oxy)-3′,6′-dihydro-[2,4′-bipyridin]-1′(2′H)-yl)methyl)-1-(oxetan-2-ylmethyl)-1 h-benzo[d]imidazole-6-carboxylic add], for which the EC50 is at most 150 nM. In the case of `O=C(O)c1ccc2nc(CN3CC=C(c4ccnc(OCc5ccc(Cl)cc5F)c4)CC3)n(C[C@@H]3CCO3)c2c1` [Compound 31, (S)-2-((2′-((4-chloro-2-fluorobenzyl)oxy)-3,6-dihydro-[4,4′-bipyridin]-1(2H)-yl)methyl)-1-(oxetan-2-ylmethyl)-1H-benzo[d]imidazole-6-carboxylic add], the 50% effective concentration (EC50) is at most 1000 nM.
